# Reference: patent US20150210755A1, “ANTI-POLY-N-ACETYL GLUCOSAMINE (PNAG) MONOCLONAL ANTIBODY AND USES THEREOF FOR THE PREVENTION OR TREATMENT OF PNAG EXPRESSING BACTERIAL INFECTION” (SANOFI, priority 2012, published 2015)
# Tested on: methicillin sensitive S. aureus (strain MN8)
# Assay: Murine lethal septicemia model in immuno-competent mice
# Format: in vivo
# Settings: Vancomycin 30 mg/kg
# Description: Differences in viable bacterial counts between control and drug-treated groups were analyzed by 1-way ANOVA followed by Dunnett's adjustment for multiplicity. For lethal septicemia, differences in survival between control and drug-treated groups were performed using a Log Rank test followed by a Bonferroni-Holm's adjustment for multiplicity
structure (smiles),measurement,value
CN[C@H](CC(C)C)C(=O)N[C@H]1C(=O)N[C@@H](CC(N)=O)C(=O)N[C@H]2C(=O)N[C@H]3C(=O)N[C@H](C(=O)N[C@H](C(=O)O)c4cc(O)cc(O)c4-c4cc3ccc4O)[C@H](O)c3ccc(c(Cl)c3)Oc3cc2cc(c3O[C@@H]2O[C@H](CO)[C@@H](O)[C@H](O)[C@H]2O[C@H]2C[C@](C)(N)[C@H](O)[C@H](C)O2)Oc2ccc(cc2Cl)[C@H]1O [Vancomycin],% Survival (96 h post-infection),100%
